The results in this text go back to US20250134895A1, “METHODS AND COMPOSITIONS FOR TREATING ALPHA-SYNUCLEIN-MEDIATED NEURODEGENERATION” (UNIVERSITY HEALTH NETWORK, priority 2021, published 2025).

In assay [1] the test system is transgenic A30P α-synuclein C. elegans. Put plainly: Coiler score and locomotion of C. elegans expressing A30P α-synuclein in dopaminergic neurons. The format is in vivo, Caenorhabditis elegans. Here is the method: Using high-resolution, multi-worm tracking with custom image processing, methods were developed for semi-automated and blinded scoring of circularity for a population of simultaneously recorded animals (n=10 per recording). A coiler score was determined for the population tested by first calculating the circularity value for each animal in each frame of video and then calculating the proportion of circularity values >0.6. […] The coiler phenotype is an abnormal motor behaviour previously reported for several unc C. elegans strains with mutations affecting neuronal function.
Animals were synchronized by isolating eggs using alkaline hypochlorite treatment and hatching overnight. Larvae were plated onto NGM agar plates with OP50 and grown for 4 days before recording locomotion. For individual C. elegans recordings, a single adult animal was randomly picked, washed for 1 to 2 minutes in M9 buffer, and then transferred to a fresh NGM plate without food for imaging. Video images were acquired (2 frames per second) for up to 6 minutes using a sCMOS camera (pco.edge, PCO) mounted on a stereomicroscope (Olympus MVX10 MacroView) controlled using the μManager software.^55 A total of 40 individual animals were imaged for each strain. For C. elegans population recordings, ten adult animals were randomly removed using an eyelash pick, washed for 1 minute in M9 buffer, and then transferred to a fresh NGM plate without food, with a ring of copper sulfate solution (150 mM) around the area of recording (a chemorepellent to keep the animals in the recording frame). Exploratory locomotion was recorded using a CCD camera (GX1920, Allied Vision) which was attached to a dissecting stereomicroscope (Leica M165C, 1.0× PlanApo lens). A Labview program captured video (2 frames per second) at 1936×1456 resolution. Using ImageJ, the displacement, perimeter, and area of each animal was calculated, from which a circularity value was computed using the following formula: circularity=4π(A/P^2), where A is the area of the animal's body and P is the perimeter of the animal's body (both expressed in arbitrary pixel units). […] Using MATLAB (Mathworks), various behavioural metrics including the coiler score were calculated, which is the percentage of frames with a circularity value >0.6. Speed was automatically computed from the ImageJ based WrmTrk plugin as the distance travelled by each animal (in pixels) over the amount of time that it was tracked (in seconds).56 Average speed was determined by calculating the weighted average of each tracked animal's speed within a single population of animals. On the day of the recording for dopamine or raclopride treatment, adult animals were washed for 1 minute in M9 buffer, treated in a solution containing either drug for 1 minute, and then placed onto fresh NGM plates without food, with a copper sulfate solution ring around the area of recording. […] Drug plates were prepared by adding each drug to LB medium with OP50 before spreading onto fresh NGM plates. The solvent used to dissolve each drug was used as vehicle control for the drug treatment experiments (M9 buffer for dopamine, distilled water for raclopride, DMSO for all other drugs).
After 72 hours of drug treatment, animals were randomly picked, washed, and recorded. A total of ten worms were recorded per population, and twelve populations were recorded for each of the four treatment groups. Locomotion was recorded for each population over a total of 1800 frames over three minutes. The animal's movement speed, area, and perimeter were automatically analyzed as previously described. Coiler score was calculated automatically using a ratio of the animal's area to perimeter, where a higher coiler score would represent a greater degree of α-synuclein-induced dopaminergic neuron dysfunction in vivo.

In assay [2] the target is T1, α-synuclein oligomers (Homo sapiens, UniProt P37840). Put plainly: Venus YFP protein-fragment complementation assay in rat primary cortical neurons. It counts as cell-based. The conditions noted are these: 10 μM, 72 hours.
Procedure: Specifically, adeno-associated viral vectors (AAV) were used to co-express human α-synuclein tagged with the N- or C-terminal half of Venus yellow fluorescent protein (YFP) in rat cortical neurons.
Pregnant Sprague Dawley rats (E17) were purchased from Charles River. Embryos were surgically removed, and neurons were harvested in a sterile environment. Neurons were plated on poly-D-lysine coated glass coverslips at a density of 5×10^5 cells per well in Neurobasal-A medium, (Gibco, 10888022) supplemented with B27 (2%) (Gibco, 17504044), antibiotic-antimycotic (1%) (Gibco, 15240062), and Glutamax (1%) (Gibco, 35050061). Fifty percent media changes were performed every 3 days. […] Two days post isolation, neurons were co-transduced with AAV-V1 S and AAV-SV2 or transduced with AAV-Venus alone at a MOI of 3,000. […] Concentrations were selected to avoid neuron toxicity according to previous reports.^57-61 Drug-containing media was removed, and cells were washed 1 time with ice-cold PBS before being fixed with 4% PFA (Sigma) at room temperature for 10 minutes. Levels of α-synuclein oligomers were measured by YFP fluorescence. […] YFP fluorescence intensity was analysed automatically using Imaris imaging software (Oxford Instruments). […]
In assay [3] the target is T1, α-synuclein oligomers. Put plainly: Gaussia luciferase protein-fragment complementation cell assay of α-synuclein oligomers in H4 neuroglioma cells. Details: full-length human α-synuclein fused to the N-terminal fragment of Gaussia princeps luciferase (syn-luc1); full-length human α-synuclein fused to the C-terminal fragment of Gaussia princeps luciferase (syn-luc2); expressed in transfected cells; host or cells: H4 neuroglioma cells (ATCC, HTB-148), transient co-transfection. The note with it: 1 μM or 10 μM, Example 9. The format is cell-based. Here is the method: For controls in this assay, vehicle (i.e., DMSO), rapamycin, and bafilomycin A were used. Rapamycin, or sirolimus, is a small molecule that activates autophagy by inhibiting mTOR (mammalian target of rapamycin). […] To test this possibility, cells expressing α-synuclein were treated with each of the compounds and a cell permeable, resazurin-based assay was used to test for cell viability.
H4 neuroglioma cells (ATCC, HTB-148) were maintained in Dulbecco's Modified Eagle Medium plus high glucose, L-glutamine, and sodium pyruvate (ThermoFisher, 11995-065) with 10% heat-inactivated fetal bovine serum (ThermoFisher, 16140071) and 1% antibiotic-antimycotic cocktail (ThermoFisher, 15240062) at 37° C. and 5% CO2. DNA expression constructs encoding for full-length human α-synuclein fused to the N-terminal fragment of Gaussia princeps luciferase (syn-luc1), full-length human α-synuclein fused to the C-terminal fragment of Gaussia princeps luciferase (syn-luc2), and full-length Gaussia princeps luciferase were kindly provided by Dr. Pamela McLean, Mayo Clinic Jacksonville.^33 Cells were transiently co-transfected with syn-luc1 and syn-luc2 or transfected with luciferase alone using Superfect transfection reagent (Qiagen, 301305) according to the manufacturer's instructions. Twenty-four hours after transfection, cells were plated on a 96-well microplate at 60,000 cells per well. Twenty-four hours after plating, cells were treated with drugs or vehicle control. Following 24 hours of treatment, cells were washed 1 time with PBS and bioluminescence was measured using an automated CLARIOstar plate reader (Mandel, 430-0505). Cell permeable, native coelenterazine was used as the Gaussia luciferase substrate. Lyophilized coelenterazine (Nanolight, 303-500) was reconstituted in NanoFuel Solvent (Nanolight, 399-1), then diluted in PBS to 16.6 μg/mL, and dispensed per well to a final concentration of 20 μM). The bioluminescent signal generated by the luciferase enzyme was assessed at 470 nm over 5 seconds. Raw luminescence units were normalized to the DMSO vehicle control of each 96-well microplate. To assess cell viability, H4 neuroglioma cells were prepared and treated as described above and, 1 hour prior to viability analysis, cells were treated with PrestoBlue viability reagent (ThermoFisher, A13261) according to the manufacturer's instructions. Fluorescence was automatically measured using a CLARIOstar plate reader (Mandel, 430-0505) and then normalized to the fluorescence measure of the DMSO vehicle control.
We used a bioluminescent protein-fragment complementation assay in which human H4 neuroglioma cells co-express human α-synuclein tagged with the N- or C-terminal half of Gaussia princeps luciferase (FIG. 12). Reconstitution of a complete and active luciferase molecule from the fragments occurs upon α-synuclein oligomerization, and so luminescence provides an indirect measure of α-synuclein oligomer levels. H4 neuroglioma cells were co-transfected with α-syn luciferase fragments, and constructs were plated into a 96-well plate and treated with either 1 μM or 10 μM of each of the 19 drug compounds.

For the molecule `Nc1nc(NC2CC2)c2ncn([C@H]3C=C[C@@H](CO)C3)c2n1` [Abacavir, abacavir], the locomotor speed result in assay [1] (100 μM of drug) is given as “No significant differences”. For the same molecule, the “effect on coiling / coiler score” value in assay [1] (100 μM, 72 hr, vs DMSO vehicle) is “significantly reduced”. For the same molecule, the “YFP fluorescence compared with vehicle control” value at α-synuclein oligomers [2] was “significantly reduced”. Besides, the “α-syn oligomers as measured by luciferase activity” value on α-synuclein oligomers [3] is given as “significant decrease”.
